Values of other authors as cited in paper PMC12382614, “(Oxidopyridyl)Porphyrins of Different Lipophilicity: Photophysical Properties, ROS Production and Phototoxicity on Melanoma Cells Under CoCl2-Induced Hypoxia” (Antioxidants, 2025).

Experiments:
[1] = set-up: method as in PMID 3222336; conditions: reference compound; cited from earlier work
[2] = cited from earlier work

C1=Cc2nc1c(-c1ccccc1)c1nc(c(-c3ccccc3)c3ccc([nH]3)c(-c3ccccc3)c3ccc([nH]3)c2-c2ccccc2)C=C1 [TPP, tetraphenylporphyrin, reference compound]
τFL [1]: 10.7 ns | ΦISC ([2]; reference compound (in toluene)): 0.87 | εT-T ([2]; reference compound): 66 600 M^−1cm^−1 | τT ([2]; reference compound): 90 μs
